Experimental data as given in article PMC6272155, “Plasmin Regulation through Allosteric, Sulfated, Small Molecules” (Molecules, 2015).

Tests used:
Format in all cases: biochemical
factor Xa = factor Xa (Homo sapiens, UniProt P00742); experiment: Direct inhibition of factor Xa, chromogenic substrate (Spectrozyme FXa) hydrolysis assay
Description: (§1) The rationale behind targeting an allosteric site on plasmin was to achieve inhibition specificity over the closely related serine proteases. In contrast to active sites, allosteric sites are not as highly conserved and therefore present a powerful opportunity for discovering a selective modulator of enzyme function. […] Using appropriate small peptide-based chromogenic substrates, the fractional residual thrombin and factor Xa activities were measured under the physiological condition of pH 7.4 and 37 °C.
(§2) Briefly, to each well of a 96-well microplate containing 185 μL of 20–50 mM Tris-HCl buffer, pH 7.4, containing 100–150 mM NaCl, 0.1% PEG8000 and 0.02% Tween80 at either 25 °C (thrombin) or 37 °C (factor Xa) was added 5 μL of 10–20 mM inhibitor (or vehicle) and 5 μL of the enzyme. The final concentrations of the enzymes were 6 nM (thrombin) and 1.09 nM (factor Xa). After 10 min incubation, 5 μL 1.0 mM Spectrozyme TH or 2.5 mM Spectrozyme FXa, was rapidly added and the residual enzyme activity was measured from the initial rate of increase in A405. Relative residual enzyme activity (Y, activity in the presence of inhibitor to that in its absence) as a function of the concentration of inhibitor was measured.

human Lys-plasmin = biological target: T1, human Lys-plasmin (Homo sapiens, UniProt P00747); experiment: Direct inhibition of human Lys-plasmin, chromogenic substrate (Spectrozyme PL) hydrolysis assay
T1 construct: purchased Haematologic Technologies (Essex Junction, VT, USA)
T1 sequence (P00747 581-810 limits assumed): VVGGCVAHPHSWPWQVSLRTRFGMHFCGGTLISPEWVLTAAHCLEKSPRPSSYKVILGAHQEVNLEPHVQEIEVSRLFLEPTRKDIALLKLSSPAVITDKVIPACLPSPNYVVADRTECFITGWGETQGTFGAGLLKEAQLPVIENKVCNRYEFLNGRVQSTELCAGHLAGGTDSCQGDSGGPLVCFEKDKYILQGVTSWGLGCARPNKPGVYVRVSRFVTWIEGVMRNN
T1 sequence (P00747 97-580 partner limits assumed): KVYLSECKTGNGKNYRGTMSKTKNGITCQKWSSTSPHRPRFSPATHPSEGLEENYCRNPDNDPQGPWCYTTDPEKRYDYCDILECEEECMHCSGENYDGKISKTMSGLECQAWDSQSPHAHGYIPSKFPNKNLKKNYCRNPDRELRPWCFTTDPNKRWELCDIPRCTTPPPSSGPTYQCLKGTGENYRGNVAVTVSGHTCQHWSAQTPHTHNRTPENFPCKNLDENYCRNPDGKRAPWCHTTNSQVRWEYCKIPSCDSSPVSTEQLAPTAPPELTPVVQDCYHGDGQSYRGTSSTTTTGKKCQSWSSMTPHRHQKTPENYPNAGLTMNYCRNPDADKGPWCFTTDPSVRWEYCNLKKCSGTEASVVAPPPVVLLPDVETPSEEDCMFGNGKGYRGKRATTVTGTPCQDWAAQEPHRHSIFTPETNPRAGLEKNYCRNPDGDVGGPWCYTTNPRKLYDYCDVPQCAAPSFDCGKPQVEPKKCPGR
Description: Important to emphasize here that the potency of NSGM-based inhibitors was evaluated by measuring their IC50's (X-axis), whereas the efficacy was assessed by measuring the overall change in residual plasmin activity (%) (ΔY = YM − Y0) (Y-axis).
Direct inhibition of human Lys-plasmin was measured using a chromogenic substrate hydrolysis assay on a microplate reader (FlexStation III, Molecular Devices, Sunnyvale, CA, USA), as reported earlier. Briefly, to each well of a 96-well microplate containing 85 µL of 50 mM Tris-HCl buffer, pH 7.4, containing 150 mM NaCl, 0.1% PEG8000, and 0.02% Tween80 at 37 °C was added 5 µL potential NSGM-based inhibitor (20–100 mM aqueous solution) (or vehicle alone) and 5 µL enzyme. The final concentration of the enzyme was 20 nM. After 5 min incubation, 5 µL of 1 mM Spectrozyme PL was rapidly added and the residual enzyme activity was measured from the initial rate of increase in A405. Relative residual enzyme activity (Y) as a function of the concentration of sulfated molecule was fitted using logistic equation 1 to obtain the potency (IC50), efficacy (ΔY) and Hill slope (HS) of inhibition. In this equation, YM and Y0 are the maximal and minimal values of Y: (1) Y = Y0+YM−Y0/1+10^(log[Inhibitor]0 − logIC50) ×HS […]
In this equation, Y is the ratio of residual plasmin activity in the presence of inhibitor to that in its absence (fractional residual activity). YM and Y0 are the maximum and minimum possible values of the fractional residual proteinase activity. The difference between these two values is used to evaluate the inhibitor’s efficacy to reduce the residual enzyme activity under the assay condition.
Direct inhibition of human plasmin by sulfated small molecules. Direct inhibition of plasmin was measured using a chromogenic substrate hydrolysis assay on a microplate reader (FlexStation III, Molecular Devices), as reported earlier. Briefly, to each well of a 96-well microplate containing […]
Tween80 at 37 °C was added 5 µL potential inhibitor (or vehicle alone) and 5 µL enzyme. The final concentration of the enzyme was 20 nM. After 5 min incubation, 5 µL of 1 mM Spectrozyme PL was rapidly added and the residual enzyme activity was measured from the initial rate of increase in A405.
Relative residual enzyme activity (Y, activity in the presence of inhibitor to that in its absence) as a function of the concentration of SPGG derivative was fitted using logistic Equation (1) to obtain the potency (IC50), efficacy (ΔY) and Hill slope (HS) of inhibition. In this equation, YM and Y0 are the maximal and minimal values of Y.

thrombin = thrombin (Homo sapiens, UniProt P00734); experiment: Direct inhibition of thrombin, chromogenic substrate (Spectrozyme TH) hydrolysis assay; details: pH 7.4, 37 °C; read-out: IC50 against thrombin
Description: as §1, §2

human plasmin = biological target: T2, human plasmin (Homo sapiens, UniProt P00747); experiment: Michaelis-Menten kinetics of Spectrozyme PL hydrolysis by human plasmin in presence of inhibitor
T2 construct: purchased Haematologic Technologies (Essex Junction, VT, USA)
T2 sequence (P00747 581-810 limits assumed): as the sequence (P00747 581-810 limits assumed) above
T2 sequence (P00747 97-580 partner limits assumed): as the sequence (P00747 97-580 partner limits assumed) above
Description: The initial rate of Spectrozyme PL hydrolysis by human plasmin (20 nM) was monitored from the linear increase in absorbance at 405 nm corresponding to less than 10% consumption of the substrate. […] The data were fitted by Michaelis-Menten Equation (2) to determine KM,app and VMAX: (2) V= VMAX [S]/KM+ [S] […]
Michaelis-Menten kinetics of Spectrozyme PL hydrolysis by plasmin in the presence of […]
The initial rate of Spectrozyme PL hydrolysis by human plasmin (20 nM) was monitored from the linear increase in absorbance at 405 nm corresponding to less than 10% consumption of the substrate. The initial rate was measured as a function of various concentrations of the substrate (0–400 μM) […]
50 mM Tris-HCl buffer, pH 7.4, 150 mM NaCl at 37 °C. The data were fitted by Michaelis-Menten Equation (2) to determine KM,app and VMAX. […]

factor Xa, sequence (P00742 235-488 limits assumed): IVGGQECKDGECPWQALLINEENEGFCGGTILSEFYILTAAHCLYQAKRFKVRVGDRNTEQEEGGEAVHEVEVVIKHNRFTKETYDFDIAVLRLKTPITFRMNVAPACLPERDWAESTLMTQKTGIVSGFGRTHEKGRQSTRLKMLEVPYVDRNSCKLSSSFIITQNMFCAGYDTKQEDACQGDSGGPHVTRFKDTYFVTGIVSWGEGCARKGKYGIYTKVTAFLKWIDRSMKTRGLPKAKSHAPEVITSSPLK
factor Xa, sequence (P00742 41-179 partner limits assumed): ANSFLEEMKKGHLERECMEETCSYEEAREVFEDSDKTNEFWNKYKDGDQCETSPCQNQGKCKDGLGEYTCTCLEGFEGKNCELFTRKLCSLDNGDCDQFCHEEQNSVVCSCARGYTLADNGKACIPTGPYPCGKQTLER

O=c1c(OS(=O)(=O)O)c(-c2ccc(OS(=O)(=O)O)c(OS(=O)(=O)O)c2)oc2cc(OS(=O)(=O)O)cc(OCCCCOc3cc(OS(=O)(=O)O)cc4oc(-c5ccc(OS(=O)(=O)O)c(OS(=O)(=O)O)c5)c(OS(=O)(=O)O)c(=O)c34)c12 [compound 52, 5,5'-(Butane-1,4-diylbis(oxy))bis(2-(3,4-O,O-disulfonato-phenyl)-3,7-O,O-disulfonato-4H-chromen-4-one)]
selectivity index for plasmin over factor Xa (factor Xa): about 5 fold
IC50 (factor Xa; pH 7.4, 37 °C, read-out: IC50 against factor Xa): > 250 µM
IC50 (human Lys-plasmin; human plasmin 20 nM, 50 mM Tris-HCl pH 7.4, 150 mM NaCl, 37 °C, Spectrozyme PL): 76 ± 12 µM
HS (Hill slope) (human Lys-plasmin; logistic fit, pH 7.4, 37 °C): 1.0 ± 0.2
Emax (human Lys-plasmin; pH 7.4, logistic fit, pH 7.4, 37 °C, read-out: ΔY% (efficacy, YM − Y0)): 72%
IC50 (thrombin): > 500 µM
mechanism of plasmin inhibition (human plasmin; Michaelis-Menten kinetics, pH 7.4, 37 °C): uncompetitive inhibition
decrease in KM relative to absence of inhibitor (human plasmin; inhibitor 0 to 150 μM): approximately 3.5 fold
VMAX of Spectrozyme PL hydrolysis (human plasmin; inhibitor 15 μM): 52.9 ± 2.9 mAU/min
VMAX of Spectrozyme PL hydrolysis (human plasmin; inhibitor 30 μM): 37.0 ± 1.5 mAU/min
VMAX of Spectrozyme PL hydrolysis (human plasmin; inhibitor 75 μM): 34.8 ± 1.5 mAU/min
VMAX of Spectrozyme PL hydrolysis (human plasmin; inhibitor 150 μM): 26.4 ± 0.8 mAU/min
